The results in this text go back to paper PMC4574351, “Tubulin cofactors and Arl2 are cage-like chaperones that regulate the soluble αβ-tubulin pool for microtubule dynamics” (eLife, 2015).

Holding throughout (experiment): malachite green phosphate release, Michaelis-Menten fit
Format in all cases: biochemical

In experiment [1] the target is T1, TBC-DEG:αβ-tubulin:TBCC ternary complex (Saccharomyces cerevisiae, UniProt P39110).
T1 construct: gene CIN4; recombinant yeast TBC-DEG and full-length TBCC with equimolar double-cycled porcine brain tubulin dimer; tubulin may contribute to GTP turnover; with Protein CIN1; Protein PAC2; Tubulin-folding cofactor C; Tubulin alpha chain (Sus scrofa brain, isotype mixture); Tubulin beta chain (Sus scrofa brain, isotype mixture)
Particulars: 1 μM each TBC-DEG, buffer and temperature same, read-out: Km (GTP). The text has this: (§1) malachite green phosphate release, Michaelis-Menten fit on TBC-DEG:αβ-tubulin:TBCC ternary complex

The target in experiment [2] is T2, TBC-DEG:αβ-tubulin:TBCC ternary complex (Saccharomyces cerevisiae, UniProt P39110, Q73L).
T2 construct: gene CIN4; recombinant yeast TBC-DEG and full-length TBCC with equimolar double-cycled porcine brain tubulin dimer; tubulin may contribute to GTP turnover; with Protein CIN1; Protein PAC2; Tubulin-folding cofactor C; Tubulin alpha chain (Sus scrofa brain, isotype mixture); Tubulin beta chain (Sus scrofa brain, isotype mixture)
T2 sequence (P39110 whole entry Q73L, one chain of several): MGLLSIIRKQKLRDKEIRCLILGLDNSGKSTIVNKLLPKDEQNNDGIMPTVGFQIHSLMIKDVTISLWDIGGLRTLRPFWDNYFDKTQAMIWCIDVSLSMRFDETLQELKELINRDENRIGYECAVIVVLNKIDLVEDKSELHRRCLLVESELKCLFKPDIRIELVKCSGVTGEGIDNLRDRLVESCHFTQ
T2 sequence (P46670 whole entry partner, one chain of several): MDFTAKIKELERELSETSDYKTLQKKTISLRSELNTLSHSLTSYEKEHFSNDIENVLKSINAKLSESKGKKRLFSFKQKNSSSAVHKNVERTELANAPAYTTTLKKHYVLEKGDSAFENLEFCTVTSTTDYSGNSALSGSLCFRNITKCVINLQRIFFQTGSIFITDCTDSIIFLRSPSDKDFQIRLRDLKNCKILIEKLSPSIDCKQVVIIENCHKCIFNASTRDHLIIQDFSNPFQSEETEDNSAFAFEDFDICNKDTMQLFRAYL
T2 sequence (P02550 whole entry partner, one chain of several): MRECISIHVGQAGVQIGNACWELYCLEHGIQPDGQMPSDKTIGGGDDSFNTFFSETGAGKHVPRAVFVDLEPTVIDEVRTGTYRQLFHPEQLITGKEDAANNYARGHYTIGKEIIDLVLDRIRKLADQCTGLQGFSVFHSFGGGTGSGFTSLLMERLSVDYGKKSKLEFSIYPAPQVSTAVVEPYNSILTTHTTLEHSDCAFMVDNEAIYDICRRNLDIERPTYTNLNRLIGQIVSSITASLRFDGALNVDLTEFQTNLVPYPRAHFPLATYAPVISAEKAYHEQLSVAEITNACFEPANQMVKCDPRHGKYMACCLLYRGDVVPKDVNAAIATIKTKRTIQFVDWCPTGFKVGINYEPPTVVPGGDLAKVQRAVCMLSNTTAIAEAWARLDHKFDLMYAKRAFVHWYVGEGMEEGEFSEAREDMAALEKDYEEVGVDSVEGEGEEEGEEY
T2 sequence (P02554 whole entry partner, one chain of several): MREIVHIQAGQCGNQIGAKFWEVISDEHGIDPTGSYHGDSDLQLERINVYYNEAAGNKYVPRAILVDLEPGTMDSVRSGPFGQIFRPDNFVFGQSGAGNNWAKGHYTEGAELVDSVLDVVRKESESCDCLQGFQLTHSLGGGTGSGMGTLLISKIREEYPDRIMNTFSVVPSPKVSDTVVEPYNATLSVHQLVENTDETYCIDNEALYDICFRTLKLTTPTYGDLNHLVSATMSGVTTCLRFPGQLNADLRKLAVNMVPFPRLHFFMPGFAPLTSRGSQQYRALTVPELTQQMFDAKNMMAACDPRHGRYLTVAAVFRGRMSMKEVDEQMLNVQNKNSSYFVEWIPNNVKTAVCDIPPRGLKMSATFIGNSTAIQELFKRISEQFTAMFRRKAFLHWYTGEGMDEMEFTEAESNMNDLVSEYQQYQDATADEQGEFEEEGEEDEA
The conditions noted are these: 1 μM each TBC-DEG-Q73L, buffer and temperature same, text prints 387 μM, residual turnover ascribed to tubulin, read-out: Km (GTP).
Text: as §1

For experiment [3], the target named is T3, TBC-DEG:αβ-tubulin:TBCC-Cterm (TBCC-C) (Saccharomyces cerevisiae, UniProt P39110).
T3 construct: gene CIN4; as ternary complex but TBCC beta-helix domain only (residues 100-267, spectrin domain removed); with Protein CIN1; Protein PAC2; Tubulin-folding cofactor C; Tubulin alpha chain (Sus scrofa brain, isotype mixture); Tubulin beta chain (Sus scrofa brain, isotype mixture)
T3 sequence (P46670 100-267 partner, one chain of several): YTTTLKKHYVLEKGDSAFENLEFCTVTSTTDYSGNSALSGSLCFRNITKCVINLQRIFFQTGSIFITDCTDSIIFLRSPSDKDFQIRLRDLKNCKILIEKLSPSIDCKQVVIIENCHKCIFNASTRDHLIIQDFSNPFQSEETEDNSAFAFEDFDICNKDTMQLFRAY
T3 sequence (P02550 whole entry partner, one chain of several, the tested form may be a part): as the sequence (P02550 whole entry partner, one chain of several) above
T3 sequence (P02554 whole entry partner, one chain of several, the tested form may be a part): as the sequence (P02554 whole entry partner, one chain of several) above
Particulars: 1 μM each TBC-DEG, buffer and temperature same, read-out: Km (GTP). The source says:
malachite green phosphate release, Michaelis-Menten fit on TBC-DEG:αβ-tubulin:TBCC-Cterm (TBCC-C)

The target in another experiment is T4, TBC-DEG:TBCC (Saccharomyces cerevisiae, UniProt P39110).
T4 construct: gene CIN4; TBC-DEG mixed with equimolar full-length TBCC (GAP), all recombinant from E. coli; with Protein CIN1; Protein PAC2; Tubulin-folding cofactor C
T4 sequence (P46670 whole entry partner, one chain of several): as the sequence (P46670 whole entry partner, one chain of several) above
Particulars: 1 μM TBC-DEG, 1 μM TBCC; buffer and temperature same; read-out: Km (GTP). The source says: malachite green phosphate release, Michaelis-Menten fit on TBC-DEG:TBCC

Another experiment concerns the target T5, TBC-DEG:αβ-tubulin (Saccharomyces cerevisiae, UniProt P39110).
T5 construct: gene CIN4; recombinant yeast TBC-DEG with equimolar double-cycled porcine brain tubulin dimer; tubulin may contribute to GTP turnover; with Protein CIN1; Protein PAC2; Tubulin alpha chain (Sus scrofa brain, isotype mixture); Tubulin beta chain (Sus scrofa brain, isotype mixture)
Particulars: 1 μM TBC-DEG, 1 μM αβ-tubulin; buffer and temperature same; GTPase site may be Arl2 or tubulin; read-out: Km (GTP). The text has this:
malachite green phosphate release, Michaelis-Menten fit on TBC-DEG:αβ-tubulin

In another experiment the target is T6, TBC-DEG (TBCD-TBCE-Arl2) (Saccharomyces cerevisiae, UniProt P39110).
T6 construct: gene CIN4; full-length subunits co-expressed in E. coli (polycistronic), 6xHis N-terminal tag; 1:1:1 heterotrimer, ~205 kDa; with Protein CIN1; Protein PAC2
T6 sequence (P39110 1-191): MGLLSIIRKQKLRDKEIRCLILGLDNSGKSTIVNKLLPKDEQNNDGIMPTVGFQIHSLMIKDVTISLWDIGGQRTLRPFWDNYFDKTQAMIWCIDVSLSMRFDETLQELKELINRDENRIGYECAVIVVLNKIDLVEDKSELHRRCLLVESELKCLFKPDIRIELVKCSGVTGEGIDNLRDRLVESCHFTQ
T6 sequence (P40987 1-1014 partner): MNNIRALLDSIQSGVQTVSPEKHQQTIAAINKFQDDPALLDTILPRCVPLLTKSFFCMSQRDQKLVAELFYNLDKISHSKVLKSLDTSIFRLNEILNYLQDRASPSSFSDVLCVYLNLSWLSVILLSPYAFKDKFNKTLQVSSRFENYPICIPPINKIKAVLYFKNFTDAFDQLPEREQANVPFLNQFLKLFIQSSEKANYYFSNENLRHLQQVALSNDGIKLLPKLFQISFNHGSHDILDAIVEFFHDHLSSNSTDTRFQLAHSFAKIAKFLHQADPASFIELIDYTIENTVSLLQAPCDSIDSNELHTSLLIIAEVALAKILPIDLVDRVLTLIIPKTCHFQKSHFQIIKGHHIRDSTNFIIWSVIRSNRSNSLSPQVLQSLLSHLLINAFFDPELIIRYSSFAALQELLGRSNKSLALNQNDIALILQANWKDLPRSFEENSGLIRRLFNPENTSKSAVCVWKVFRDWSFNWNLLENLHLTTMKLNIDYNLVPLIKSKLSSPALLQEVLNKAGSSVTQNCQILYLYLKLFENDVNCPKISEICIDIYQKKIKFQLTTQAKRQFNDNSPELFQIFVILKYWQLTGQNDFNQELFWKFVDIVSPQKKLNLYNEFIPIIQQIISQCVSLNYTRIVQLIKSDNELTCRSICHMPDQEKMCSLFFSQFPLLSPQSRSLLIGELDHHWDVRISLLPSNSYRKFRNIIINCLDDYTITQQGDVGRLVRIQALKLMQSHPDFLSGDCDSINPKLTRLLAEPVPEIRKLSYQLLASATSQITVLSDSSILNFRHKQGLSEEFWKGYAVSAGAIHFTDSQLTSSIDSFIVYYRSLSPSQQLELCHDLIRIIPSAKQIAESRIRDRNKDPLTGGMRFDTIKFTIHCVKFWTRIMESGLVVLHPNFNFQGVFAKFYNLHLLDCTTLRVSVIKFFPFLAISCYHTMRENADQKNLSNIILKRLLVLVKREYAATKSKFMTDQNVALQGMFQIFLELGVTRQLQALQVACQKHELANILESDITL
T6 sequence (P39937 1-518 partner): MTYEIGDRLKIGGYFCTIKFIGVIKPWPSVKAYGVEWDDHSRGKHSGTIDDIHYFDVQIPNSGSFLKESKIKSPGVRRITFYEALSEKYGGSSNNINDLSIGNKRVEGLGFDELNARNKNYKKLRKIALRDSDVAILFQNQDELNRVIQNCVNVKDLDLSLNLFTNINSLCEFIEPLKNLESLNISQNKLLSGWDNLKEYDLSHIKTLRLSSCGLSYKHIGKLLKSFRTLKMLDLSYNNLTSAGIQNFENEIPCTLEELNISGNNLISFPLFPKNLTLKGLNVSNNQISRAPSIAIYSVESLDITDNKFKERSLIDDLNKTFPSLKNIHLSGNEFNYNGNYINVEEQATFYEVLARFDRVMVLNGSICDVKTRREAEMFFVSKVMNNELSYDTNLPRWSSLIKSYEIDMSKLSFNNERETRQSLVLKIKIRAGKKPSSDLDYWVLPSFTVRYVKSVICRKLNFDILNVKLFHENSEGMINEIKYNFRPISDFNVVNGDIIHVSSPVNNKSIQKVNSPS
The conditions noted are these: 1 μM TBC-DEG alone; 0-800 μM GTP; 50 mM HEPES, 100 mM KCl; 30 °C, 90 min. The source says: malachite green phosphate release, Michaelis-Menten fit on TBC-DEG (TBCD-TBCE-Arl2)

Like-named read-outs stand apart in the source and are kept apart here.

T5 sequence (P02550 whole entry partner, one chain of several): as the sequence (P02550 whole entry partner, one chain of several) above
T5 sequence (P02554 whole entry partner, one chain of several): as the sequence (P02554 whole entry partner, one chain of several) above

The Km is the concentration of substrate that gives half-maximal velocity. Turning to `Nc1nc2c(ncn2[C@@H]2O[C@H](COP(=O)(O)OP(=O)(O)OP(=O)(O)O)[C@@H](O)[C@H]2O)c(=O)[nH]1` [GTP], the Michaelis-Menten constant (Km) in experiment [1] (TBCC-R186A, arginine finger mutant) was 40 ± 10 µM; in experiment [1] (TBCC-Δ233-245, αβ-tubulin), 35 ± 8 µM; in experiment [1] (Arl2 with minor tubulin contribution), 99 ± 10 µM; in experiment [2] it was 371 ± 20 µM; in experiment [3], 56 ± 7 µM; on TBC-DEG:TBCC, 94 ± 10 µM. Further, the Km turned out to be 69 ± 12 µM at TBC-DEG:αβ-tubulin and 400 ± 30 µM at TBC-DEG (TBCD-TBCE-Arl2).
